Experimental data as given in ChEMBL document CHEMBL3853303, “Nazumazoles D-F, Cyclic Pentapeptides That Inhibit Chymotrypsin, from the Marine Sponge Theonella swinhoei” (J Nat Prod, 2016).

Experiment: Inhibition of bovine alpha-chymotrypsin using Suc-Leu-Leu-Val-Tyr 4-methylcoumaryl-7-amide as substrate assessed as formation of MCA after 1 hr by fluorometric method
Design: species or system Bos taurus

| IC50 [nM] | Structure (SMILES) |
| --- | --- |
| 2000 | CCC[C@@H]1NC(=O)[C@@H]2C[C@H](C)CN2C(=O)[C@@H](NC=O)CNC(=O)[C@@H](CC)NC(=O)c2coc(n2)[C@H](C)NC(=O)C1=O |
| 3000 | CCC[C@@H]1NC(=O)[C@@H]2C[C@H](C)CN2C(=O)[C@@H](NC=O)CNC(=O)[C@@H](CO)NC(=O)c2coc(n2)[C@H](C)NC(=O)C1=O |
| 10000 | CC(C)C[C@@H]1NC(=O)[C@@H]2C[C@H](C)CN2C(=O)[C@@H](NC=O)CNC(=O)[C@@H](CO)NC(=O)c2coc(n2)[C@H](C)NC(=O)C1=O |
